System: 677734-321-R-J1-PDC complex spheroid viability
Experiment: Anticancer human tumor 677734-321-R-J1-PDC patient-derived soft tissue sarcoma cell line growth inhibition [POLQ]
Settings: for IC50: curve of first compound; for viability, T/C: stronger effect = lower value
Summary of the method: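 Three-cell-type spheroids modelling solid tumor plus stroma served as the readout system; POL inhibitors were tested individually and in combination, concentration ranges set by clinical Cmax where known.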

[1] = second compound 0.0316 µM, first compound 0.0316 µM
[2] = second compound 0.0316 µM, first compound 0.1 µM
[3] = second compound 0.0316 µM, first compound 0.316 µM
[4] = second compound 0.0316 µM, first compound 1 µM
[5] = second compound 0.1 µM, first compound 0.0316 µM
[6] = second compound 0.1 µM, first compound 0.1 µM
[7] = second compound 0.1 µM, first compound 0.316 µM
[8] = second compound 0.1 µM, first compound 1 µM
[9] = second compound 0.316 µM, first compound 0.0316 µM
[10] = second compound 0.316 µM, first compound 0.1 µM
[11] = second compound 0.316 µM, first compound 0.316 µM
[12] = second compound 0.316 µM, first compound 1 µM
[13] = second compound 1 µM, first compound 0.0316 µM
[14] = second compound 1 µM, first compound 0.1 µM
[15] = second compound 1 µM, first compound 0.316 µM
[16] = second compound 1 µM, first compound 1 µM
[17] = second compound 3.16 µM, first compound 0.0316 µM
[18] = second compound 3.16 µM, first compound 0.1 µM
[19] = second compound 3.16 µM, first compound 0.316 µM
[20] = second compound 3.16 µM, first compound 1 µM
[21] = second compound 10 µM, first compound 0.0316 µM
[22] = second compound 10 µM, first compound 0.1 µM
[23] = second compound 10 µM, first compound 0.316 µM
[24] = second compound 10 µM, first compound 1 µM
[25] = second compound 0.0316 µM, first compound 3.16 µM
[26] = second compound 0.0316 µM, first compound 10 µM
[27] = second compound 0.1 µM, first compound 3.16 µM
[28] = second compound 0.1 µM, first compound 10 µM
[29] = second compound 0.316 µM, first compound 3.16 µM
[30] = second compound 0.316 µM, first compound 10 µM
[31] = second compound 1 µM, first compound 3.16 µM
[32] = second compound 1 µM, first compound 10 µM
[33] = second compound 3.16 µM, first compound 3.16 µM
[34] = second compound 3.16 µM, first compound 10 µM
[35] = second compound 10 µM, first compound 3.16 µM
[36] = second compound 10 µM, first compound 10 µM
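Also: spheroids exposed to compounds for one week.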
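For viability, T/C in this document: 100% = vehicle DMSO treated spheroids.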

`C=CCn1c(=O)c2cnc(Nc3ccc(N4CCN(C)CC4)cc3)nc2n1-c1cccc(C(C)(C)O)n1` + Cc1cccc(N(C)C(=O)C2C(O)CCN2c2nc(C)cc(C(F)(F)F)c2C#N)c1 was tested. Which IC50 (second compound 0.0316 µM) did it give?
The IC50 was 627 nM.

What about the IC50 (second compound 0.1 µM) of the same compound?
The IC50 was 478 nM.

And the IC50 (second compound 0.316 µM)?
The IC50 was 661 nM.

What about the IC50 (second compound 1 µM) of the same compound?
Its IC50 is 401 nM.

And the IC50 (second compound 3.16 µM)?
The IC50 was 537 nM.

What about the IC50 (second compound 10 µM) of the same compound?
Its IC50 is 493 nM.

What about the viability, T/C (second compound 0.0316 µM, first compound 0.00316 µM) of the same compound?
The viability, T/C was 102%.

What about the viability, T/C (second compound 0.0316 µM, first compound 0.01 µM) of the same compound?
The viability, T/C was 102%.

What about the viability, T/C [1] of the same compound?
Its viability, T/C is 102%.

And the viability, T/C [2]?
The viability, T/C was 90.6%.

What about the viability, T/C [3] of the same compound?
The viability, T/C was 81%.

And the viability, T/C [4]?
The viability, T/C was 29.7%.

What about the viability, T/C (second compound 0.1 µM, first compound 0.00316 µM) of the same compound?
The viability, T/C was 88.6%.

What about the viability, T/C (second compound 0.1 µM, first compound 0.01 µM) of the same compound?
The viability, T/C was 92.4%.

And the viability, T/C [5]?
The viability, T/C was 106%.

What about the viability, T/C [6] of the same compound?
Its viability, T/C is 78.4%.

And the viability, T/C [7]?
Its viability, T/C is 67.4%.

What about the viability, T/C [8] of the same compound?
The viability, T/C was 21.7%.

And the viability, T/C (second compound 0.316 µM, first compound 0.00316 µM)?
Its viability, T/C is 96.7%.

What about the viability, T/C (second compound 0.316 µM, first compound 0.01 µM) of the same compound?
Its viability, T/C is 95.3%.

And the viability, T/C [9]?
Its viability, T/C is 90.9%.

And the viability, T/C [10]?
The viability, T/C was 85.6%.

And the viability, T/C [11]?
The viability, T/C was 79%.

And the viability, T/C [12]?
The viability, T/C was 34.4%.

And the viability, T/C (second compound 1 µM, first compound 0.00316 µM)?
The viability, T/C was 117%.

What about the viability, T/C (second compound 1 µM, first compound 0.01 µM) of the same compound?
Its viability, T/C is 93.7%.

What about the viability, T/C [13] of the same compound?
The viability, T/C was 98.9%.

What about the viability, T/C [14] of the same compound?
The viability, T/C was 85%.

And the viability, T/C [15]?
The viability, T/C was 51.4%.

And the viability, T/C [16]?
The viability, T/C was 30.2%.

And the viability, T/C (second compound 3.16 µM, first compound 0.00316 µM)?
Its viability, T/C is 107%.

And the viability, T/C (second compound 3.16 µM, first compound 0.01 µM)?
The viability, T/C was 87.7%.

What about the viability, T/C [17] of the same compound?
Its viability, T/C is 76.3%.

What about the viability, T/C [18] of the same compound?
Its viability, T/C is 87.8%.

And the viability, T/C [19]?
Its viability, T/C is 66.8%.

And the viability, T/C [20]?
The viability, T/C was 31.9%.

And the viability, T/C (second compound 10 µM, first compound 0.00316 µM)?
Its viability, T/C is 89.6%.

What about the viability, T/C (second compound 10 µM, first compound 0.01 µM) of the same compound?
The viability, T/C was 82.6%.

What about the viability, T/C [21] of the same compound?
Its viability, T/C is 95.3%.

What about the viability, T/C [22] of the same compound?
The viability, T/C was 82.3%.

What about the viability, T/C [23] of the same compound?
The viability, T/C was 70%.

And the viability, T/C [24]?
The viability, T/C was 18.6%.

For `CC1COCCN1c1cc(-c2ccnn2C)c2ccnc(-c3ccn[nH]3)c2n1` (stereo unspecified) + Cc1cccc(N(C)C(=O)C2C(O)CCN2c2nc(C)cc(C(F)(F)F)c2C#N)c1, which IC50 (second compound 0.0316 µM) is on record?
The IC50 was 161 nM.

And the IC50 (second compound 0.1 µM)?
The IC50 was 175 nM.

And the IC50 (second compound 0.316 µM)?
The IC50 was 153 nM.

And the IC50 (second compound 1 µM)?
The IC50 was 156 nM.

And the IC50 (second compound 3.16 µM)?
Its IC50 is 125 nM.

What about the IC50 (second compound 10 µM) of the same compound?
Its IC50 is 110 nM.

What about the viability, T/C [1] of the same compound?
Its viability, T/C is 100%.

And the viability, T/C [2]?
The viability, T/C was 67.6%.

And the viability, T/C [3]?
The viability, T/C was 24.8%.

What about the viability, T/C [4] of the same compound?
Its viability, T/C is 21.6%.

And the viability, T/C [25]?
Its viability, T/C is 18.2%.

What about the viability, T/C [26] of the same compound?
Its viability, T/C is 14.3%.

What about the viability, T/C [5] of the same compound?
Its viability, T/C is 88.9%.

What about the viability, T/C [6] of the same compound?
Its viability, T/C is 70.9%.

And the viability, T/C [7]?
Its viability, T/C is 27.8%.

And the viability, T/C [8]?
Its viability, T/C is 17.1%.

What about the viability, T/C [27] of the same compound?
Its viability, T/C is 17.4%.

And the viability, T/C [28]?
Its viability, T/C is 16.6%.

And the viability, T/C [9]?
Its viability, T/C is 98.1%.

And the viability, T/C [10]?
Its viability, T/C is 64.9%.

What about the viability, T/C [11] of the same compound?
Its viability, T/C is 24.2%.

And the viability, T/C [12]?
Its viability, T/C is 19.6%.

And the viability, T/C [29]?
Its viability, T/C is 20.3%.

And the viability, T/C [30]?
The viability, T/C was 16.3%.

What about the viability, T/C [13] of the same compound?
The viability, T/C was 99.9%.

And the viability, T/C [14]?
The viability, T/C was 65.5%.

And the viability, T/C [15]?
Its viability, T/C is 25.4%.

What about the viability, T/C [16] of the same compound?
Its viability, T/C is 18.7%.

And the viability, T/C [31]?
Its viability, T/C is 18.9%.

What about the viability, T/C [32] of the same compound?
Its viability, T/C is 15.8%.

What about the viability, T/C [17] of the same compound?
The viability, T/C was 90.7%.

What about the viability, T/C [18] of the same compound?
The viability, T/C was 56%.

And the viability, T/C [19]?
Its viability, T/C is 25.2%.

What about the viability, T/C [20] of the same compound?
Its viability, T/C is 19.1%.

What about the viability, T/C [33] of the same compound?
The viability, T/C was 16.5%.

What about the viability, T/C [34] of the same compound?
The viability, T/C was 18.6%.

What about the viability, T/C [21] of the same compound?
Its viability, T/C is 89.7%.

What about the viability, T/C [22] of the same compound?
The viability, T/C was 52.5%.

What about the viability, T/C [23] of the same compound?
The viability, T/C was 21.7%.

And the viability, T/C [24]?
The viability, T/C was 17.2%.

And the viability, T/C [35]?
The viability, T/C was 18.4%.

What about the viability, T/C [36] of the same compound?
Its viability, T/C is 16%.

What does the source list for `CC1COCCN1c1cc(C2(S(C)(=N)=O)CC2)nc(-c2ccnc3[nH]ccc23)n1` (stereo unspecified) + Cc1cccc(N(C)C(=O)C2C(O)CCN2c2nc(C)cc(C(F)(F)F)c2C#N)c1?
IC50 (second compound 0.0316 µM): 4030 nM; IC50 (second compound 0.1 µM): 3860 nM; IC50 (second compound 0.316 µM): 3910 nM; IC50 (second compound 1 µM): 3790 nM; IC50 (second compound 3.16 µM): 3100 nM; IC50 (second compound 10 µM): 3030 nM; viability, T/C [1]: 106%; viability, T/C [2]: 105%; viability, T/C [3]: 104%; viability, T/C [4]: 91%; viability, T/C [25]: 57%; viability, T/C [26]: 24.2%; viability, T/C [5]: 106%; viability, T/C [6]: 110%; viability, T/C [7]: 96.5%; viability, T/C [8]: 92.9%; viability, T/C [27]: 53.6%; viability, T/C [28]: 28.6%; viability, T/C [9]: 117%; viability, T/C [10]: 108%; viability, T/C [11]: 100%; viability, T/C [12]: 90.4%; viability, T/C [29]: 54.3%; viability, T/C [30]: 22%; viability, T/C [13]: 109%; viability, T/C [14]: 102%; viability, T/C [15]: 98.5%; viability, T/C [16]: 98.3%; viability, T/C [31]: 54.5%; viability, T/C [32]: 25.4%; viability, T/C [17]: 104%; viability, T/C [18]: 103%; viability, T/C [19]: 99.7%; viability, T/C [20]: 90.6%; viability, T/C [33]: 49.2%; viability, T/C [34]: 37.8%; viability, T/C [21]: 102%; viability, T/C [22]: 96.5%; viability, T/C [23]: 93.1%; viability, T/C [24]: 87%; viability, T/C [35]: 48.3%; viability, T/C [36]: 26%

— PubChem BioAssay AID1963842 (Molecular Pharmacology Branch, DTP, NCI, 2024)
